# What was measured:
# [1] = in vivo; cited from earlier work
# [2] = test system: Vγ9JPVδ2 T cells; test: IFNγ ELISpot with Vγ9JPVδ2 T cell clone Bob and spinner HeLa antigen presenting cells; assay type: cell-based, human; settings: 1,000 Vγ9JPVδ2 T cells, 25,000 spinner HeLa cells per well, 6 hours; FIG. 1A
# Description: (§1) γδ T cells were isolated from human peripheral blood using a magnetic separation kit (TCR γ/δ Microbead Kit and MS columns from Miltenyi Biotech). Once isolated, cells were resuspended in T cell medium (RPMI supplemented with 100 U/ml penicillin, 100 μg/ml streptomycin, 10% FCS, 10% T-STIM (BD Biosciences), 200 U/ml Proleukin (Chiron)) containing 2×10^6 γ-irradiated PMBC/ml from three individuals and 2 μg/ml PHA. Cells were maintained with T cell medium, and restimulated with mixed irradiated PBMC and PHA every three weeks. For cloning, the same mix was used to grow cells by limiting dilution in 96-well U-boftomed plates. Cells that grew were confirmed to be γδ T cells with Vγ9 antibody.
# (§2) γδ T cells were washed in RPMI and incubated overnight in R10 at 37° C. 96-well nitrocellulose plates (Millipore) were incubated overnight at 4° C. with 15 μg/ml antihuman-IFN-γ primary antibody (clone 1-D1K; Mabtech, Sweden). The plates were then washed twice with RPMI and blocked with R10 for 3 hours at 37° C. R10 was decanted by inversion and assays applied to each well before incubation at 37° C. as detailed below. Assays were terminated by washing once in water, followed by 5 washes in PBS. Secondary antibody (anti-human-IFN-γ-Biotin antibody clone 7-B6-1; Mabtech) was applied at 1 μg/ml and the plate incubated for 100 minutes at room temperature (RT). […]
# [3] = test system: human PBMC; test: TNFα ELISA on direct ex vivo human PBMC exposed to nBPs; assay type: cell-based; settings: 10 μM risedronate or 100 μM pamidronate, 12 hours, FIG. 1B
# Description: γδ T cells were washed in RPMI and incubated overnight in R10 at 37° C. 96-well nitrocellulose plates (Millipore) were incubated overnight at 4° C. with 15 μg/ml antihuman-IFN-γ primary antibody (clone 1-D1K; Mabtech, Sweden). The plates were then washed twice with RPMI and blocked with R10 for 3 hours at 37° C. R10 was decanted by inversion and assays applied to each well before incubation at 37° C. as detailed below. Assays were terminated by washing once in water, followed by 5 washes in PBS. Secondary antibody (anti-human-IFN-γ-Biotin antibody clone 7-B6-1; Mabtech) was applied at 1 μg/ml and the plate incubated for 100 minutes at room temperature (RT). The plate was washed 6 times with PBS before application of Streptavidin-ALP (1:1000 in PBS; Mabtech) for 40 minutes at RT. […] A TNFα ELISA kit (Peprotech) was used in accordance with the manufacturers instructions.
# In FIG. 1 (B), nBPs are shown to stimulate TNFA production from direct ex vivo human PBMC. […] 60 μl aliquots were removed at the specified time and added to TNFα ELISA assays.
# [4] = test system: human PBMC depleted of γδ T cells; test: TNFα ELISA on PBMC after magnetic depletion of γδ T cells; assay type: cell-based; settings: 100 μM pamidronate, 10 μM risedronate; FIG. 2A, 2B
# Description: γδ T cells were washed in RPMI and incubated overnight in R10 at 37° C. 96-well nitrocellulose plates (Millipore) were incubated overnight at 4° C. with 15 μg/ml antihuman-IFN-γ primary antibody (clone 1-D1K; Mabtech, Sweden). The plates were then washed twice with RPMI and blocked with R10 for 3 hours at 37° C. R10 was decanted by inversion and assays applied to each well before incubation at 37° C. as detailed below. Assays were terminated by washing once in water, followed by 5 washes in PBS. Secondary antibody (anti-human-IFN-γ-Biotin antibody clone 7-B6-1; Mabtech) was applied at 1 μg/ml and the plate incubated for 100 minutes at room temperature (RT). The plate was washed 6 times with PBS before application of Streptavidin-ALP (1:1000 in PBS; Mabtech) for 40 minutes at RT. […]
# 10^8 human PBMC were incubated with 10 μg/ml of anti-human pan-γδ antibody for 30 minutes on ice. […] The success of depletion was determined by FACS analysis with the anti-CD3 and pan-γδ antibodies detailed above, and was >95% efficient in all cases shown.
# 5×10^6 PBMC from a healthy donor+/−magnetic depletion of γδ T cells were suspended in 1 ml of R10+/−antigen in 75×5 mm FACS tubes at 37° C. and 5% CO2 for the times shown. […] The percentage of cytokine positive cells (fluorescence intensity>20) is shown in the upper right corner of each panel.
# [5] = test system: Vγ9-expressing T cells; test: Intracellular cytokine staining (ICS) of fresh PBMC exposed to nBPs; assay type: cell-based, human; settings: for IL6 and TNFα production by Vγ9-expressing cells by ICS: 100 μM pamidronate, FIG. 2D
# Description: 10^6 fresh PBMC were incubated in FACS tubes with brefeldin A (10 μg/ml R10) for 5 hours after pulsing with relevant antigens for 1 hour. The cells were then washed, permeabilised in 20% FACSLyse (BD Biosciences), washed twice in ice cold PBS/0.1% BSA and stained on ice with pre-titred APC-conjugated anti-IFNγ, anti-TNFα and anti-IL-2 and PE-conjugated anti-Vγ9 mAbs for 20 minutes. For single cytokine analysis (FIG. 2D), cells were stained with PE-conjugated anti-IL6, APC-conjugated anti-TNFα and FITC-conjugated anti-Vγ9 antibodies. In each case, cells were then washed, resuspended in PBS & analysed immediately.
# 5×10^6 PBMC from a healthy donor+/−magnetic depletion of γδ T cells were suspended in 1 ml of R10+/−antigen in 75×5 mm FACS tubes at 37° C. and 5% CO2 for the times shown. 60 μl of cell supernatant was removed and applied to TNFα ELISA plates in duplicate and developed according to the manufacturers instructions. Standard deviation from the mean of the two replicate ELISAs is shown although, in most cases, this error is smaller than the plot symbol. In (C), exposure to nBPs activates PBMC that express a Vγ9 receptor and not other T cells or B cells. 10^6 fresh human PBMC were exposed to R10 (top panel) or R10+10 μM risedronate (bottom panel) for 6 hours in an intracellular cytokine staining (ICS) assay. Plots show all the cells in the lymphocyte gate stained for PE-Vγ9 and APC-cytokines (TNFα, IL2, and IFNγ). Exposure to risedronate induces cytokine production only in lymphocytes that express a Vγ9 TCR. The percentage of total lymphocytes in the Vγ9^+ cytokine^+ gate shown is indicated in the upper right of each panel. Almost 10% of the lymphocytes expressing a Vγ9 receptor are activated by exposure to nBPs. […] Plots are gated to show only Vγ9-expressing lymphocytes. […] The percentage of cytokine positive cells (fluorescence intensity>20) is shown in the upper right corner of each panel.
# [6] = test system: circulating γδ T cells; settings: cited from earlier work
# [7] = test system: Vγ9JPVδ2 T cell clones; test: TNFα ELISA on Vγ9JPVδ2 T cell clones activated by risedronate; assay type: cell-based, human; settings: 10 μM risedronate, 10^6 T cells, clones P, M and Bob; FIG. 1C
# Description: as §1, §2
# [8] = test system: γδ T cell; settings: cited from earlier work
Compound,acute phase response [1],activation of clonal Vγ9JPVδ2 T cells by IFNγ ELISpot [2],TNFα production from direct ex vivo human PBMC [3],TNFα production by PBMC after magnetic depletion of γδ T cells [4],IL6 and TNFα production by Vγ9-expressing cells by ICS ([5]; 10 μM risedronate),further results
"O=P(O)(O)C(Cl)(Cl)P(=O)(O)O [clodronate, disodium clodronate]",has not been observed,–,–,–,–,–
"CC(O)(P(=O)(O)O)P(=O)(O)O [etidronate, disodium etidronate]",has not been observed,–,–,–,–,–
"NCCC(O)(P(=O)(O)O)P(=O)(O)O [pamidronate, disodium pamidronate]",–,activate,large amounts of TNFα,removed the ability of PBMC to produce TNFα,make both IL6 and TNFα,"number of circulating γδ T cells in patients with acute phase reaction ([6]; 1 and 3 weeks post-infusion): substantial increase; γδ T cells as % of CD3+ cells post-infusion ([6]; one patient, expanded from 4.6%): 70%"
"O=P(O)(O)C(O)(Cc1cccnc1)P(=O)(O)O [risedronate, risedronate sodium]",–,activate,large amounts of TNFα,removed the ability of PBMC to produce TNFα,make both IL6 and TNFα,"activation (TNFα production) of Vγ9JPVδ2 T cell clones [7]: extremely rapid; lymphocytes expressing a Vγ9 receptor activated (cytokine+ by ICS) ([5]; 10 μM risedronate (100 μM pamidronate, data not shown), 6 hours, TNFα, IL2, IFNγ staining, FIG. 2C): ~10%; expression of the Vγ9 TCR ([5]; 10 μM risedronate, 6 hours, ICS): lowers the expression of the Vγ9 TCR; concentration stimulating γδ T cell expansion from human PBMC [8]: ≥ 10 nM"
O=P(O)(O)C(Sc1ccc(Cl)cc1)P(=O)(O)O [tiludronate],has not been observed,–,–,–,–,–
